What all share (experiment): Kinase panel (mobility shift)
Type in all cases: biochemical

The target in one assay is KIT (Homo sapiens, UniProt P10721). The protocol: (§1) The disclosed compounds were tested for activity against a panel of 299 kinases. The target enzyme was incubated with fluorescently labeled substrate and test compounds in a standardized reaction mixture in 384 well plates. Upon termination of the reaction, samples were introduced onto microfluidic chips. The samples migrated through channels in the chips and product and substrate were separated based on the difference in their charge (electrophoretic mobility shift). Enzyme activity was measured by direct comparison of the fluorescence in the product and substrate peaks. […] In the tables A=95% or greater at 5 um, B=90%-94% at 5 um, and C=80%-89% at 5 um. [note to draft: we included category D for 50-79 and category E is less than 50%. Feel free to remove if not needed)
KIT, sequence (P10721 26-976, species assumed): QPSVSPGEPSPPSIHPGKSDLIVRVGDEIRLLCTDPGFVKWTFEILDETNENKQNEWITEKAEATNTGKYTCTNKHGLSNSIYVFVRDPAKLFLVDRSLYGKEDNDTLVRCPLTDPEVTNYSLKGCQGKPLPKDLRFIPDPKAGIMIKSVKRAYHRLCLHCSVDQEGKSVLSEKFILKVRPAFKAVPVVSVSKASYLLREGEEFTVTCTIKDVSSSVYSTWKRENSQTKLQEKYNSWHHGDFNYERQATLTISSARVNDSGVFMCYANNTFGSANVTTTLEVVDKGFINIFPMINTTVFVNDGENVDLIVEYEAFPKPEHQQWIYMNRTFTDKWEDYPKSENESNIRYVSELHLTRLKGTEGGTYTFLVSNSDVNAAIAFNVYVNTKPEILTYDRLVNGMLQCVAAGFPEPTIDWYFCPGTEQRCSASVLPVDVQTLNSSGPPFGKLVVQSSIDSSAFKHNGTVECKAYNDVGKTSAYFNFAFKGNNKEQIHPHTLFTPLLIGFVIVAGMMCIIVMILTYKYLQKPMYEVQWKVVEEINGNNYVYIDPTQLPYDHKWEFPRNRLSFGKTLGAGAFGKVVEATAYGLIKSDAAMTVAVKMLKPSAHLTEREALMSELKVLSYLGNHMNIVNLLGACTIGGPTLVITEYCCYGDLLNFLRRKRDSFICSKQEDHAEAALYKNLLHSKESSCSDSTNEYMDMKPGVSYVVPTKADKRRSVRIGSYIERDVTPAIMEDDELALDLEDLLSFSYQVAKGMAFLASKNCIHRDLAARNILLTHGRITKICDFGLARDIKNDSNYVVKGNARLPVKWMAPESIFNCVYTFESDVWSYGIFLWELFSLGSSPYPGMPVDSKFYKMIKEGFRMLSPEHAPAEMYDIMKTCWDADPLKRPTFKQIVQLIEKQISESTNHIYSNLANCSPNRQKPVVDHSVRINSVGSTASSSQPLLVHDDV

For a further assay, the target named is P38-b (Homo sapiens, UniProt Q15759). The procedure: as §1
P38-b, sequence (Q15759 whole entry, species assumed): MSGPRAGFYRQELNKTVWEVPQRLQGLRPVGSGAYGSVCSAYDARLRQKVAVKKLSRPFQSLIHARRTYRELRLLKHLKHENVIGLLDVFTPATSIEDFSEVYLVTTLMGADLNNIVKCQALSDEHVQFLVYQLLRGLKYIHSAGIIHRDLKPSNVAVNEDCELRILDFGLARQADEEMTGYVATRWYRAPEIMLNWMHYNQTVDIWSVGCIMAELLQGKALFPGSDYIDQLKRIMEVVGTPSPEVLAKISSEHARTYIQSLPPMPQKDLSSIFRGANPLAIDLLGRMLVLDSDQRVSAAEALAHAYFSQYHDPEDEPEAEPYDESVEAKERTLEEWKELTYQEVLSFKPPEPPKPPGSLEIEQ
Another assay has as its target HIPK3 (Homo sapiens, UniProt Q9H422). The protocol:
as §1

The next assay has as its target T1, TAOK2 (Homo sapiens, UniProt Q9UL54).
T1 sequence (Q9UL54 1-1235): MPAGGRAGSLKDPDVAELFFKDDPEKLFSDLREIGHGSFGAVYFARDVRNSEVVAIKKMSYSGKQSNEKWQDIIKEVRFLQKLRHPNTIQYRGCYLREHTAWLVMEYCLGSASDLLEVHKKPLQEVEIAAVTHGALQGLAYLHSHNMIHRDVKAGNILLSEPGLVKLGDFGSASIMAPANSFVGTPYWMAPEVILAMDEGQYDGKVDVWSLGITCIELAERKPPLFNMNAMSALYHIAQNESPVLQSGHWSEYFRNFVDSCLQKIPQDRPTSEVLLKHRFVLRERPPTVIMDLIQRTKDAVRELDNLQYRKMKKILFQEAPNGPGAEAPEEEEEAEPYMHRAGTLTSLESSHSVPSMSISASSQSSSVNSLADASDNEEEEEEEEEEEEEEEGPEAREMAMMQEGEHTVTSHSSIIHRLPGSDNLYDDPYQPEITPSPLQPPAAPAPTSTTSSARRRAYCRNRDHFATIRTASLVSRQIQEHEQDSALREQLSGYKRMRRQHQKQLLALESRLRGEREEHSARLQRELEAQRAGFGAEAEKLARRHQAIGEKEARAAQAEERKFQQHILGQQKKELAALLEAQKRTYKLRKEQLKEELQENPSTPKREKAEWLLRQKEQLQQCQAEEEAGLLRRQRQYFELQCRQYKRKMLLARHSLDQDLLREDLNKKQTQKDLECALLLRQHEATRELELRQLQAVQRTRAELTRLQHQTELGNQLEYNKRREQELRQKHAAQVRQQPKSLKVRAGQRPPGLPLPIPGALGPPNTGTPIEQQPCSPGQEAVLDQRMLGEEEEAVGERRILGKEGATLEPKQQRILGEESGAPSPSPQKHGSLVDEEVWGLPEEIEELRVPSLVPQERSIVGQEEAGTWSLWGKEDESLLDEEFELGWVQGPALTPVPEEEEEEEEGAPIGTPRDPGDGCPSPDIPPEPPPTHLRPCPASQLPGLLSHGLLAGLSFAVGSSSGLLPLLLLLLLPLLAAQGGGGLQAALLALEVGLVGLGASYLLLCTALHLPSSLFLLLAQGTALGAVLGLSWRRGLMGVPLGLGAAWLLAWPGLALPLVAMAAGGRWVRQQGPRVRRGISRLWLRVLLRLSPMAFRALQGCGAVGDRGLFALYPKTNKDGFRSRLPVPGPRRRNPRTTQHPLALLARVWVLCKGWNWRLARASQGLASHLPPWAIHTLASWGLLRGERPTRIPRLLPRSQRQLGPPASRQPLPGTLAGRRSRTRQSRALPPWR
The procedure: as §1

The next assay deals with T2, TYRO3 (Homo sapiens, UniProt Q06418).
T2 sequence (Q06418 41-890): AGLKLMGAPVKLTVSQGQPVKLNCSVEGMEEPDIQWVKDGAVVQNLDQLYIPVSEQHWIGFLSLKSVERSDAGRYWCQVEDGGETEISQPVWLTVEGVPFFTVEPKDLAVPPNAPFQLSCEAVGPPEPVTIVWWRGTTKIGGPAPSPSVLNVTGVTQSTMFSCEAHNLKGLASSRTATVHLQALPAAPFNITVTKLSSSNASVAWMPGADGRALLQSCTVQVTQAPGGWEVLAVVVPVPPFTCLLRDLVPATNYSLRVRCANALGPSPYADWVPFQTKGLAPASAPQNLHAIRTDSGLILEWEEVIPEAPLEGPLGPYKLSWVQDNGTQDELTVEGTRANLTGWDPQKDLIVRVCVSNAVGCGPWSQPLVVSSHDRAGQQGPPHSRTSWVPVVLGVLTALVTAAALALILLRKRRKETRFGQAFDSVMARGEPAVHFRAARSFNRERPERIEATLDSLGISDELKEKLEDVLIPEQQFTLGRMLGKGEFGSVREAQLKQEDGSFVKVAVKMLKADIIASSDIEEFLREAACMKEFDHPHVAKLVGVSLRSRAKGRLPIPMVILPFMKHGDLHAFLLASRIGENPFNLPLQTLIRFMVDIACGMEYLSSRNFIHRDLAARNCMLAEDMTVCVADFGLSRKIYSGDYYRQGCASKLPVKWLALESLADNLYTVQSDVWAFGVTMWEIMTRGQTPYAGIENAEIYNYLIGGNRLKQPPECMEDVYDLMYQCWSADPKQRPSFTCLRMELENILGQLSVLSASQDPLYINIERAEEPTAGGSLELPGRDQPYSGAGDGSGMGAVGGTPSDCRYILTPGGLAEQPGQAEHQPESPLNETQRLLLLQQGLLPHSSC
The procedure:
as §1

A further assay addresses LCK (Homo sapiens, UniProt P06239). The protocol: as §1
For another assay, the target named is PDGFR-a (Homo sapiens, UniProt P16234). The protocol:
as §1

PDGFR-a, sequence (P16234 24-1089, species assumed): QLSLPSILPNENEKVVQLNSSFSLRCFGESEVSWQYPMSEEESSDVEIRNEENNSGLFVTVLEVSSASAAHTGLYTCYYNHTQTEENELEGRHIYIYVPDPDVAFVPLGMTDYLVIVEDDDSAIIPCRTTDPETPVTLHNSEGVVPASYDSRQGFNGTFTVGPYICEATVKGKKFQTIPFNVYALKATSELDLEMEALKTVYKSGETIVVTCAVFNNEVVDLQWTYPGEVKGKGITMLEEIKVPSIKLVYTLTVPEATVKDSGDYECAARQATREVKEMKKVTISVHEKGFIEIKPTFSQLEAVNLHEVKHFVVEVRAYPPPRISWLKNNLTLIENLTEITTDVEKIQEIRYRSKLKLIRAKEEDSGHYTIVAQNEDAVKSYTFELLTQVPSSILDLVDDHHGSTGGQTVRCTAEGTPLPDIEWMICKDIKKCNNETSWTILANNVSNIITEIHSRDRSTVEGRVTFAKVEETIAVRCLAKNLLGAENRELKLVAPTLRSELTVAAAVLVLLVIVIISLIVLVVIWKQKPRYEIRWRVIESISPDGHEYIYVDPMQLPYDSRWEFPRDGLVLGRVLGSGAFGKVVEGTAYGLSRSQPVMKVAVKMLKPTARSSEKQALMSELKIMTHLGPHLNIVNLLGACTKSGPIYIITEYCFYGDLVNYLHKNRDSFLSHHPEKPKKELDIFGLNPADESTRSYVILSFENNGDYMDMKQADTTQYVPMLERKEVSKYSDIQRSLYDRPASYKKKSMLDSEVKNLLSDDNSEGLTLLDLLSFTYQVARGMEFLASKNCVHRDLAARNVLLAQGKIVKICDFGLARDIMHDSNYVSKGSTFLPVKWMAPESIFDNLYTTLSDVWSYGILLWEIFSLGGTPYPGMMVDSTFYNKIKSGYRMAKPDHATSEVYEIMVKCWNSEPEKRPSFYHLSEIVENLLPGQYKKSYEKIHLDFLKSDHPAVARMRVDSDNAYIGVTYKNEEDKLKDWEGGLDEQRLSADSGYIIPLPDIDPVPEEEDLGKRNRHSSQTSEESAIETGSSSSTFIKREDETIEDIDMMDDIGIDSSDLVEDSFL
HIPK3, sequence (Q9H422 whole entry, species assumed): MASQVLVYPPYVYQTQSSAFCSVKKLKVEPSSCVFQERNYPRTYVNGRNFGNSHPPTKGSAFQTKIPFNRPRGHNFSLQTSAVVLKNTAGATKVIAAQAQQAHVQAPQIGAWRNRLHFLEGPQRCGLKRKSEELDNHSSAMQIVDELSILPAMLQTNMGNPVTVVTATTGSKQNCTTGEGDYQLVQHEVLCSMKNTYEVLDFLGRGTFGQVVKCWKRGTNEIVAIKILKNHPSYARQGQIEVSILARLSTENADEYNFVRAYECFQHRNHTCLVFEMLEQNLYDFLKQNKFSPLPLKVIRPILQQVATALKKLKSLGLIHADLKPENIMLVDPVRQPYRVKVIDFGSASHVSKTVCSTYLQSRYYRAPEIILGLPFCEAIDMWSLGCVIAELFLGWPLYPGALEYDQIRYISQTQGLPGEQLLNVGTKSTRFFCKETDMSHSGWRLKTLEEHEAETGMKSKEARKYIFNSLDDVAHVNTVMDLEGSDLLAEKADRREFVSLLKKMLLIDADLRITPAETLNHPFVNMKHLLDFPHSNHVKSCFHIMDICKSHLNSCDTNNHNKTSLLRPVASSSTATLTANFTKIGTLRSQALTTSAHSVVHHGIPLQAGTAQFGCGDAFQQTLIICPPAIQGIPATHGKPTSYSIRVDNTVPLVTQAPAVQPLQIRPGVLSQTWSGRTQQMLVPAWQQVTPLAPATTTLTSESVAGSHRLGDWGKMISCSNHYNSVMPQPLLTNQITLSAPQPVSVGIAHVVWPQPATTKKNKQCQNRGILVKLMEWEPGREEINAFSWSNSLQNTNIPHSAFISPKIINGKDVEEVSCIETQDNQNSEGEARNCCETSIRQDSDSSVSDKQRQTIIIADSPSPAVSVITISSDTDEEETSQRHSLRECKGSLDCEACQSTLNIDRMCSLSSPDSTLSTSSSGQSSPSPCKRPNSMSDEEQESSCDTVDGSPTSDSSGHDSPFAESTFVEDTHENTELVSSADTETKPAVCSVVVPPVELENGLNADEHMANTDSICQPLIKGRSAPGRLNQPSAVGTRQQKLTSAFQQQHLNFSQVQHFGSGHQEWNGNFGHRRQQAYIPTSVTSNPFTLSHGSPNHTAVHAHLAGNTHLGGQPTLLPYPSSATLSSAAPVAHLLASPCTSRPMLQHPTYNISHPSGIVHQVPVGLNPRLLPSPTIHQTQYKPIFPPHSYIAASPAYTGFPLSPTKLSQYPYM
LCK, sequence (P06239 whole entry, species assumed): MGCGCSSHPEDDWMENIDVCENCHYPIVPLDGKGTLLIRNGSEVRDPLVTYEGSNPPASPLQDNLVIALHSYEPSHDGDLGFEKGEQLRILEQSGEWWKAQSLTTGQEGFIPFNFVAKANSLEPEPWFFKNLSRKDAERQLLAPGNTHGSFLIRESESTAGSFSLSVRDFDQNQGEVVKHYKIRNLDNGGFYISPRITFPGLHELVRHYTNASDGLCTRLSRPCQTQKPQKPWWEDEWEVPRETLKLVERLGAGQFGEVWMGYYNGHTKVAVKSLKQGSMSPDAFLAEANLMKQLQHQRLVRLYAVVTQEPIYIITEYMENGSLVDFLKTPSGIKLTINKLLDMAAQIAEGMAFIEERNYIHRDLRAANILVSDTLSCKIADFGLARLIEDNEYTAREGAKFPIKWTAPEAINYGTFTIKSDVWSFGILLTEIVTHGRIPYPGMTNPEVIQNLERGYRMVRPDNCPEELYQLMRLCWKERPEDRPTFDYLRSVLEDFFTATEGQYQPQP

Consider `CSc1nc(C(=O)Nc2ccc(Oc3ccnc(N)c3Cl)c(F)c2)c(-c2ccc(F)cc2)o1` [Compound 1], for which the inhibition (in general, the share of the control response that was lost under treatment) at 5 µM on KIT is below 50%; at P38-b it was below 50%; on HIPK3, below 50%; on TAOK2, below 50%; on TYRO3 it was 50 to 79%; at LCK, below 50%. Further, the inhibition at 5 µM at PDGFR-a was below 50%.
On to `CSc1nc(C(=O)Nc2ccc(Oc3cc4cnn(C)c4cc3Br)c(F)c2)c(-c2ccc(F)cc2)o1` [Compound 2], for which the inhibition at 5 µM on KIT was below 50%; on P38-b it was 50 to 79%; on HIPK3, below 50%; on TAOK2, below 50%; on TYRO3, below 50%; on LCK it was below 50%. Moreover, at PDGFR-a, the inhibition at 5 µM is below 50%.
Turning to `CNC(=O)c1cc(Oc2ccc(NC(=O)c3nc(SC)oc3-c3ccc(F)cc3Cl)cc2)ccn1` [Compound 3], the inhibition at 5 µM was 50 to 79% on KIT; below 50% on P38-b; below 50% on HIPK3; below 50% on TAOK2; 90 to 94% on TYRO3; at least 95% on LCK. Also, the inhibition at 5 µM at PDGFR-a was 50 to 79%.
In the case of `CNC(=O)c1cc(Oc2ccc(NC(=O)c3nc(SC)oc3-c3ccc(F)c(F)c3)cc2)ccn1` [Compound 4], the inhibition at 5 µM was 50 to 79% at KIT; 50 to 79% at P38-b; 50 to 79% on HIPK3; below 50% at TAOK2; 50 to 79% on TYRO3; 80 to 89% at LCK. The inhibition at 5 µM at PDGFR-a is below 50%.
With `CNC(=O)c1cc(Oc2ccc(NC(=O)c3nc(SC)oc3-c3ccc(Cl)s3)cc2)ccn1` [Compound 5], the inhibition at 5 µM was below 50% on KIT; below 50% on P38-b; below 50% on HIPK3; below 50% on TAOK2; 80 to 89% at TYRO3; 50 to 79% on LCK. Moreover, the inhibition at 5 µM at PDGFR-a was below 50%.
Take `CNC(=O)c1cc(Oc2ccc(NC(=O)c3nc(SC)oc3-c3ccc(F)cc3F)cc2)ccn1` [Compound 6]: the inhibition at 5 µM at KIT is 80 to 89%; on P38-b, below 50%; on HIPK3 it was below 50%; at TAOK2, below 50%; at TYRO3 it was at least 95%; on LCK it was at least 95%. The inhibition at 5 µM on PDGFR-a is below 50%.
As to `CNC(=O)c1cc(Oc2ccc(NC(=O)c3nc(SC)oc3-c3ccc(OC)cc3)cc2)ccn1` [Compound 7], the inhibition at 5 µM on KIT is below 50%; at P38-b, below 50%; at HIPK3, below 50%; on TAOK2 it was below 50%; on TYRO3, below 50%; at LCK it was at least 95%. Also, at PDGFR-a, the inhibition at 5 µM was below 50%.
Regarding `CSc1nc(C(=O)Nc2ccc(Oc3ccnc(-c4cnn(C)c4)c3)c(F)c2)c(-c2ccc(F)cc2)o1` [Compound 11], the inhibition at 5 µM on KIT is 80 to 89%; on P38-b it was 80 to 89%; at HIPK3, below 50%; at TAOK2, below 50%; at TYRO3, at least 95%; at LCK, 90 to 94%. In addition, on PDGFR-a, the inhibition at 5 µM was in the range of 90 to 94%.
`CNC(=O)c1cc(Oc2ccc(NC(=O)c3nc(SC)oc3-c3ccc(F)cc3F)cc2F)ccn1` [Compound 12]: the inhibition at 5 µM is 50 to 79% at KIT; below 50% at P38-b; 50 to 79% at HIPK3; below 50% at TAOK2; 90 to 94% at TYRO3; at least 95% at LCK. Also, the inhibition at 5 µM on PDGFR-a is below 50%.
As to `CNC(=O)c1cc(Oc2ccc(NC(=O)c3nc(S(C)(=O)=O)sc3-c3ccc(F)cc3)cc2F)ccn1` [Compound 13], the inhibition at 5 µM is below 50% on KIT; below 50% at P38-b; 80 to 89% on HIPK3; below 50% on TAOK2; 80 to 89% on TYRO3; 90 to 94% on LCK. Further, the inhibition at 5 µM on PDGFR-a was in the range of 50 to 79%.
In the case of `CNC(=O)c1cc(Oc2ccc(NC(=O)c3nc(NC)oc3-c3ccc(F)cc3)cc2F)ccn1` [Compound 14], the inhibition at 5 µM on KIT is 50 to 79%; on P38-b it was below 50%; at HIPK3, 50 to 79%; on TAOK2 it was 80 to 89%; on TYRO3 it was 80 to 89%; on LCK, 50 to 79%. Also, at PDGFR-a, the inhibition at 5 µM is below 50%.
Consider `CNC(=O)c1cc(Oc2ccc(NC(=O)c3nc(OC)oc3-c3ccc(F)cc3)cc2F)ccn1` [Compound 15], for which the inhibition at 5 µM is 50 to 79% on KIT; below 50% at P38-b; 50 to 79% at HIPK3; below 50% on TAOK2; 90 to 94% at TYRO3; 50 to 79% on LCK. Moreover, on PDGFR-a, the inhibition at 5 µM lay in the range of 50 to 79%.
Consider `CNC(=O)c1cc(Oc2ccc(NC(=O)c3nc(SC)oc3-c3ccc(F)s3)cc2F)ccn1` [Compound 16], for which the inhibition at 5 µM on KIT, on P38-b, on HIPK3, on TAOK2, at TYRO3 and at LCK was below 50% each time. The inhibition at 5 µM on PDGFR-a is below 50%.
For `CNC(=O)c1cc(Oc2ccc(NC(=O)c3nc(NC)oc3-c3ccc(F)s3)cc2F)ccn1` [Compound 17], the inhibition at 5 µM at KIT, on P38-b, on HIPK3, at TAOK2, on TYRO3 and on LCK was below 50% throughout. At PDGFR-a, the inhibition at 5 µM was below 50%.

These data come from patent publication US11629143B2, “HipK4 inhibitors and uses thereof” (Vibliome Therapeutics, LLC, priority 2020, dated 2023).
